Measurements taken from the CheMixHub viscosity set.

Assay: xn = mol fraction of the nth substance listed

CC(C)Br + CCO
viscosity [mPa·s], 101 kPa
Conditions	x1 = 0.1	x1 = 0.2	x1 = 0.3	x1 = 0.4	x1 = 0.5	x1 = 0.6	x1 = 0.7	x1 = 0.8	x1 = 0.9
298.15 K	0.9584	0.8399	0.7419	0.6681	0.601	0.546	0.505	0.4811	0.4782
303.15 K	0.8856	0.7784	0.6899	0.6233	0.5616	0.5172	0.4819	0.4653	0.4647
308.15 K	0.8081	0.711	0.6407	0.5773	0.5251	0.4875	0.4624	0.4474	0.4513
313.15 K	0.7913	0.7008	0.6327	0.5668	0.5161	0.4739	0.4489	0.4352	0.4285
318.15 K	0.7206	0.644	0.5803	0.5262	0.4829	0.4499	0.4268	0.4152	0.4137

O=C1CCCC1 + CCOC(=O)OCC
viscosity [mPa·s], 101 kPa
Conditions	x2 = 0.0876	x2 = 0.1356	x2 = 0.2458	x2 = 0.3359	x2 = 0.4228	x2 = 0.5415	x2 = 0.6475	x2 = 0.7513	x2 = 0.8664	x2 = 0.9352
303.15 K	0.958	0.937	0.891	0.859	0.83	0.797	0.77	0.747	0.725	0.713
308.15 K	0.893	0.873	0.833	0.803	0.776	0.745	0.722	0.701	0.681	0.668
313.15 K	0.835	0.819	0.783	0.757	0.733	0.705	0.683	0.664	0.644	0.632

CC(CCO)CC(C)(C)C (stereo not drawn) + CCOC(C)=O
viscosity [mPa·s], 101.33 kPa
Conditions	x2 = 0.1539	x2 = 0.2904	x2 = 0.4122	x2 = 0.5219	x2 = 0.6208	x2 = 0.7106	x2 = 0.7925	x2 = 0.8677	x2 = 0.9364
298.15 K	5.471	3.367	2.072	1.443	1.075	0.879	0.672	0.514	0.486
303.15 K	4.696	2.968	1.837	1.305	0.975	0.789	0.631	0.526	0.475
308.15 K	4.016	2.452	1.646	1.181	0.934	0.724	0.586	0.495	0.439

CC(O)CO (stereo not drawn) + CCOC(C)=O
viscosity [mPa·s], 101.3 kPa
Conditions	x2 = 0.0929	x2 = 0.1906	x2 = 0.2984	x2 = 0.4082	x2 = 0.5085	x2 = 0.6062	x2 = 0.7032	x2 = 0.7968	x2 = 0.8998
298.15 K	20.11	10.09	5.084	2.919	1.869	1.238	0.8932	0.6933	0.5327
303.15 K	15.92	8.28	4.306	2.516	1.663	1.115	0.8175	0.6419	0.5008
308.15 K	12.64	6.743	3.661	2.193	1.47	1.011	0.7525	0.5957	0.4714
313.15 K	10.17	5.587	3.146	1.924	1.313	0.9178	0.6971	0.5565	0.4442
318.15 K	8.35	4.705	2.729	1.705	1.177	0.8394	0.6418	0.5191	0.4197
323.15 K	6.893	4.021	2.377	1.514	1.072	0.7691	0.5964	0.4882	0.3962

ClC=C(Cl)Cl + CCOCCO
viscosity [mPa·s], 101.33 kPa
Conditions	x1 = 0.1191	x1 = 0.2226	x1 = 0.3214	x1 = 0.4322	x1 = 0.5234	x1 = 0.6128	x1 = 0.7066	x1 = 0.8105	x1 = 0.9057
303.15 K	1.453	1.286	1.134	0.976	0.865	0.769	0.687	0.614	0.557
313.15 K	1.166	1.052	0.946	0.829	0.747	0.676	0.612	0.555	0.511

CC(O)CO (stereo not drawn) + CN1CCCC1=O
101.33 kPa
Conditions	viscosity [mPa·s]
298.15 K, x2 = 0.03556	37.57
298.15 K, x2 = 0.09927	27.77
298.15 K, x2 = 0.195	18.05
298.15 K, x2 = 0.3013	11.78
298.15 K, x2 = 0.4032	8.207
298.15 K, x2 = 0.5025	5.965
298.15 K, x2 = 0.5936	4.558
298.15 K, x2 = 0.6967	3.452
298.15 K, x2 = 0.7994	2.682
298.15 K, x2 = 0.9144	2.042
298.15 K, x2 = 0.942	1.918
308.15 K, x2 = 0.05805	19.68
308.15 K, x2 = 0.1023	16.23
308.15 K, x2 = 0.1977	11.09
308.15 K, x2 = 0.2949	8.059
308.15 K, x2 = 0.407	5.667
308.15 K, x2 = 0.5051	4.3
308.15 K, x2 = 0.5903	3.441
308.15 K, x2 = 0.7066	2.66
308.15 K, x2 = 0.7992	2.172
308.15 K, x2 = 0.8842	1.81
308.15 K, x2 = 0.9388	1.623
318.15 K, x2 = 0.05313	12.45
318.15 K, x2 = 0.1009	10.51
318.15 K, x2 = 0.1905	7.664
318.15 K, x2 = 0.2992	5.559
318.15 K, x2 = 0.4025	4.21
318.15 K, x2 = 0.5017	3.319
318.15 K, x2 = 0.5999	2.697
318.15 K, x2 = 0.6946	2.204
318.15 K, x2 = 0.7967	1.805
318.15 K, x2 = 0.8916	1.507
318.15 K, x2 = 0.9393	1.378

O=C1CCCC1 + CN(C)c1ccccc1
viscosity [mPa·s], 101 kPa
Conditions	303.15 K	308.15 K
x2 = 0.0705	1.022	0.948
x2 = 0.1321	1.04	0.964
x2 = 0.2014	1.062	0.981
x2 = 0.2754	1.083	0.997
x2 = 0.3412	1.101	1.011
x2 = 0.4012	1.114	1.023
x2 = 0.4825	1.13	1.039
x2 = 0.5612	1.143	1.053
x2 = 0.6405	1.153	1.066
x2 = 0.7025	1.158	1.076
x2 = 0.7758	1.164	1.087
x2 = 0.8512	1.168	1.096
x2 = 0.9215	1.169	1.104
